Reference: patent US6960601B2, “Preparation and use of imidazole derivatives for treatment of obesity” (Bayer Pharmaceuticals Corporation, priority 2001, dated 2005)

Key:
[1] = Measurement of brain exposure; format: in vivo; settings: rat, brain homogenate, oral; 10 mg/kg p.o.; brains collected at 2 hours post-dosing; male obese Zucker fa/fa rats; read-out: brain homogenate exposure level
Method: Measurement of Brain Exposure
Male obese Zucker fa/fa rats were administered compounds, typically at 10 mg/kg p.o., and then brains were collected at 2 hours post-dosing for determination of brain concentration. Brains were weighed and homogenized with 4 mL 10 mM ammonium acetate buffer (pH 3), and the brain tissue homogenate samples were extracted via protein precipitation with acetonitrile. Samples were vortexed, centrifuged, and analyzed by liquid chromatography utilizing mass spectrometer selective detection (LC/MS/MS) using the heated nebulizer interface. Samples were quantitated using weighted (1/x^2) linear internal standard calibration curve. For example, when 1-(4-chlorophenyl)-2-(2-chlorophenyl)-N-(1-piperidinyl)-5-butyl-1H-imidazole-4-carboxamide was dosed at 10 mg/kg p.o., a brain homogenate exposure level of approximately 200 nM was determined; when 2-(2-chlorophenyl)-1-(4-chlorophenyl)-5-ethyl-N-[(1S,2S)-2-hydroxycyclohexyl]-1H-imidazole-4-carboxamide was dosed at 10 mg/kg p.o., a brain homogenate exposure level of approximately 200 nM was determined.

obese Zucker fa/fa rats = experiment: Chronic feeding assay (body weight, food and water consumption); format: in vivo, rat; settings: 10 mg/kg p.o. once a day, day 6 of treatment
Description: Evaluation of Compound's Efficacy on the Reduction of Body Weight and Food and Water Consumption in Obese Zucker fa/fa Rats
The purpose of this protocol is to determine the effect of chronic administration of an unknown compound on body weight and food and water consumption in obese Zucker fa/fa rats. Obese Zucker fa/fa rats are frequently used in the determination of compound efficacy in the reduction of body weight. This animal model has been successfully used in the identification and characterization of the efficacy profile of compounds that are or have been used in the management of body weight in obese humans (see, e.g., Al-Barazanji et al., Obes Res. 8:317-323, 2000; Assimacopoulos-Jeannet et al., Am. J. Physiol. 260(2 Pt 2):R278-283, 1991; Dryden et al., Horm. Metab. Res. 31:363-366, 1999; Edwards and Stevens, Pharmacol. Biochem. Behav. 47:865-872, 1994; Grinker et al., Pharmacol. Biochem. Behav. 12:265-275, 1980).
A typical study includes 60-80 male Zucker fa/fa (n=10/treatment group) with an average body weight of approximately 550 g. Rats are kept in standard animal rooms under controlled temperature and humidity and a 12/12 light dark cycle. Water and food are continuously available. Rats are single-housed in large rat shoeboxes containing grid floor. Animals are adapted to the grid floors and sham-dosed with study vehicle for at least four days before the recording of two-days baseline measurement of body weight and 24-hr food and water consumption. Rats are assigned to one of 6-8 treatment groups based upon their body weight on baseline. The groups are set up so that the mean and standard error of the mean of body weight were similar.
Animals are orally gavaged (2 mL/kg) daily before the dark phase of the LD/cycle for a pre-determined number of days (typically 6-14 days) with their assigned dose/compound. At this time, body weight, food and water consumption are measured. On the final day, animals are euthanized by CO2 inhalation, and the body weight is measured.

concentration at 2 h [1]	melting point	SMILES	increase in body weight from baseline (obese Zucker fa/fa rats)	reduction in body weight gain as compared to the vehicle control group (obese Zucker fa/fa rats)
~0.2 µM		CCc1c(C(=O)N[C@H]2CCCC[C@@H]2O)nc(-c2ccccc2Cl)n1-c1ccc(Cl)cc1 [2-(2-chlorophenyl)-1-(4-chlorophenyl)-5-ethyl-N-[(1S,2S)-2-hydroxycyclohexyl]-1H-imidazole-4-carboxamide]		
~0.2 µM		CCCCc1c(C(=O)NN2CCCCC2)nc(-c2ccccc2Cl)n1-c1ccc(Cl)cc1 [1-(4-chlorophenyl)-2-(2-chlorophenyl)-N-(1-piperidinyl)-5-butyl-1H-imidazole-4-carboxamide]		
	217 to 220 °C	Cc1c(C(=O)NC2CCCCC2)nc(-c2ccccc2Cl)n1-c1ccc([N+](=O)[O-])cc1 [Example 23, N-cyclohexyl-2-(2-chlorophenyl)-5-methyl-1-(4-nitrophenyl)-1H-imidazole-4-carboxamide]		

The remaining lines, values behind:

SMILES	concentration at 2 h [1]	melting point	increase in body weight from baseline (obese Zucker fa/fa rats)	reduction in body weight gain as compared to the vehicle control group (obese Zucker fa/fa rats)
O=C(N[C@H]1CCCC[C@@H]1O)c1cn(-c2ccc(Cl)cc2)c(-c2ccccc2Cl)n1 [2-(2-chlorophenyl)-1-(4-chlorophenyl)-N-[(1S,2S)-2-hydroxycyclohexyl]-1H-imidazole-4-carboxamide]			approximately 2.4%	approximately 50%
Cl.O=C(NNc1ccc(C(F)(F)F)cc1)c1cn(-c2ccc(Cl)cc2)c(-c2ccccc2Cl)n1 [2-(2-chlorophenyl)-1-(4-chlorophenyl)-N′-[4-(trifluoromethyl)phenyl]-1H-imidazole-4-carbohydrazide hydrochloride]			approximately 1.8%	approximately 60%
